Reference: US20250144092A1, “TREATMENT OF PSYCHIATRIC OR NEUROLOGICAL DISORDERS IN PATIENTS WITH PROMINENT ANHEDONIA USING IRDABISANT AS A MONOTHERAPY OR IN COMBINATION WITH AN ANTIPSYCHOTIC AGENT” (Alto Neuroscience, Inc., priority 2023, published 2025)
Counter-ions that a name gives are not always drawn.

How the values were obtained:
[1] = system: dopamine release in the nucleus accumbens; assay: in vivo microdialysis in freely moving rats, dopamine efflux in nucleus accumbens; details: for dopamine release in the nucleus accumbens: basal conditions, IP administration, monitored 210 minutes
Protocol: To determine whether irdabisant (or pharmaceutically acceptable salt thereof, such as irdabisant hydrochloride) leads to dopamine release in the nucleus accumbens under basal conditions similar to those in which pitolisant, ABT-239 and JNJ-39220675 were tested and found to have no effect, in vivo microdialysis was performed in freely moving rats. Dopamine levels were monitored for 210 minutes following compound administration. Irdabisant hydrochloride was administered intraperitoneally (IP) at 0.001, 0.01, 0.3 and 10 mg/kg for 30 minutes following an IP vehicle (0.5% methylcellulose and 0.2% Tween 80) injection.
Male Sprague-Dawley albino rats weighing 250 to 350 g were housed two per cage and maintained in a controlled 12:12-h light/dark cycle and under constant temperature at 22° C., with free access to food and water. Rats were anesthetized with the modified Equithesin mixture (see, e.g., Li et al., Neuropsychopharm., 30, 1986-1995, 2005) and mounted in a stereotaxic frame. Stainless guide cannula with a dummy probe were placed and fixed by cranioplastic cement onto the cortex dorsal both to the medial prefrontal cortex (mPFC) and the nucleus accumbens (NAC). Rats received dual probe implantation for the mPFC and NAC (coordinates: A+3.2, L+0.8 (10° C. inclination), V-5.5 mm and A+2.0, L+1.5 to +1.7, V-7.5 mm, respectively, relative to bregma). Three to five days after cannulation, a dialysis probe was implanted into the mPFC and NAC under slight anesthesia with isoflurane. Rats were then housed individually overnight in a dialysis cage and the probes perfused with Dulbecco's phosphate-buffered saline solution with calcium (Sigma, St. Louis, MO) (138 mM NaCl, 8.1 mM Na2HPO4, 2.7 mM KCl, 1.5 mM KH2PO4, 0.5 mM MgCl2, 1.2 mM CaCl2), pH 7.4) at a rate of 0.4 μL/min. On the day of the experiment, the flow was increased to 1.5 μL/min. Sample collection began one hour later, and samples were collected every 30 min. After 60 min of stable baseline, each rat was dosed twice (indicated by arrows in FIG. 1-4); a vehicle dose at t=0 min., followed 30 minutes later by a dose of irdabisant hydrochloride. Dopamine (DA) and acetylcholine (Ach) samples, measured in the absence of cholinesterase inhibition, were monitored with HPLC coupled to mass spectrometry.
Data are presented as percentages of baseline from baseline to 180 minutes after treatment. Mean baseline levels (i.e., an average of 60, 30, and 0 minutes before injection) of DA and ACh in the mPFC and NAC were designated as 100%. Non-transformed data were analyzed at each dose by assessing the change relative to the mean baseline using a one-way repeated measures ANOVA followed by a Bonferroni's post-hoc test as implemented in the SigmaPlot version 11.0.0.77 statistical package (Systat Software, Inc., San Jose CA).

[2] = system: dopamine release in the striatum/nucleus accumbens; details: striatal microdialysis, literature reports; cited from earlier work
[3] = system: dopamine release in the cortex; details: literature reports; cited from earlier work
[4] = cited from earlier work
[5] = oral, after dosing; cited from earlier work

SMILES: C[C@@H]1CCCN1CCCOc1ccc(-c2ccc(=O)[nH]n2)cc1 [irdabisant hydrochloride]
- elevation in dopamine levels relative to baseline ([1]; 0.01 mg/kg dose, 180 minutes post-dose, p=0.005, overall p<0.001): statistically significant elevation in dopamine levels
- elevation in dopamine levels relative to baseline ([1]; 0.3 mg/kg dose, 90 minute time point, p=0.02, overall p=0.003): significance
- maximal effect on nucleus accumbens dopamine efflux ([1]; 10 mg/kg IP dose): 205.6±6.86 % over basal
- elevation in dopamine levels relative to baseline ([1]; 10 mg/kg dose, 60, 90, 120 and 150 minute time points, overall p<0.001): significance was achieved
- threshold dose for nucleus accumbens dopamine efflux ([1]; IP): 0.01 mg/kg
- dopamine release in the nucleus accumbens [1]: increased dopamine release was observed

SMILES: Clc1ccc(CCCOCCCN2CCCCC2)cc1 [pitolisant]
- dopamine release in the nucleus accumbens [2]: no increase in release of dopamine release

SMILES: C(#Cc1ccc(CN2CCOCC2)cc1)CCN1CCCCC1.Cl.Cl [JNJ-10181457]
- dopamine release in the cortex [3]: do not

SMILES: O=C(c1ccc(Oc2ccc(F)cc2)nc1)N1CCCN(C2CCC2)CC1 [JNJ-39220675, (4-cyclobutyl-1,4-diazepan-1-yl) (6-(4-fluorophenoxy)pyridin3-yl) methanone]
- dopamine release in the nucleus accumbens [2]: lack of effect on dopamine release

SMILES: C[C@@H]1CCCN1CCCOc1ccc(-c2ccc(=O)[nH]n2)cc1 [irdabisant, 6-{4-[3-((R)-2-methyl-pyrrolidin-1-yl)-propoxy]-phenyl}-2H-pyridazin-3-one]
- dopamine release in the nucleus accumbens [1]: increases dopamine release
- change over placebo on BL-VAS subscales ([4]; Baakman et al. 2019): increasing scores on BL-VAS alertness and contentedness/mood subscales
- subjective experiences and cognitive effects ([4]; healthy participants, after a single dose): promote positive subjective experiences and cognitive effects
- Tmax [5]: approximately 5 hours

SMILES: C[C@@H]1CCCN1CCc1cc2cc(-c3ccc(C#N)cc3)ccc2o1 [ABT-239, (R)-4-(2-(2-(2-methyl-|-pyrrolidinyl)ethyl)-1-benzofuran-5-yl)benzonitrile]
- dopamine release in the nucleus accumbens [2]: lack of effect on dopamine release
